This note sets out measurements from patent US11225505B2, “Antimicrobial polymyxin derivative compounds” (MONASH UNIVERSITY, priority 2015, dated 2022).

≈ marks a conversion by molar mass, not a printed value. Where a SMILES comes first, the peptide text is derived from it. Bridges are numbered along the chain shown (N, C = ends). [ ]: non-standard residue; d: D form. The star is where a group is joined. X50 = O=C(c1sc(Br)cc1Br)*; dNva = CCC[C@@H](N)C(=O)O; X29 = O=C(c1cc(Cl)ccn1)*; X65 = O=C(c1cc(Br)ccn1)*; Dab = NCC[C@H](N)C(=O)O; X70 = O=C(c1csc(Br)c1)*; Abu = CC[C@H](N)C(=O)O; Dap = NC[C@H](N)C(=O)O

Common to all, as to format: cell-based
In assay [1] the test system is Acinetobacter baumannii ATCC 17978. The following applies: ATCC 17978. The procedure, abridged:
(§1)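 Lipopeptides (TFA salts) tested against Gram-negative strains by CLSI broth microdilution using cation-adjusted Mueller-Hinton broth; MIC recorded, polymyxin B sulphate as control.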

In assay [2] the test system is Acinetobacter baumannii FADDI-AB034. The following applies: FADDI-AB034. The essentials: as §1
The test system of assay [3] is Enterobacter cloacae FADDI-EC001. The following applies: FADDI-EC001. The procedure, abridged: (§2)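 Lipopeptide TFA salts were serially diluted in cation-adjusted Mueller-Hinton broth, inoculated with polymyxin-susceptible Gram-negative bacteria and scored for MIC according to CLSI guidance (M100-S24). Polymyxin B sulphate was included as comparator.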
The subject of assay [4] is Enterobacter cloacae FADDI-EC003. The following applies: FADDI-EC003. The procedure, abridged:
as §1

In assay [5] the test system is Enterobacter cloacae FADDI-EC006. The following applies: FADDI-EC006. The essentials: as §1
Assay [6] deals with Klebsiella pneumoniae FADDI-KP022. The following applies: FADDI-KP022. The essentials:
as §1

Assay [7] concerns Klebsiella pneumoniae FADDI-KP032. The conditions noted are these: FADDI-KP032. The essentials: as §1
Assay [8] deals with Klebsiella pneumoniae Kp BM1. The following applies: Kp BM1. The essentials: as §2
Assay [9] deals with Pseudomonas aeruginosa ATCC 27853. The conditions noted are these: ATCC 27853. The essentials:
as §1

Assay [10] deals with Pseudomonas aeruginosa FADDI-PA01. The conditions noted are these: FADDI-. The essentials: as §1
For assay [11], the system named is Pseudomonas aeruginosa FADDI-PA022. The following applies: FADDI-PA022. The essentials: as §1
Assay [12] deals with Pseudomonas aeruginosa FADDI-PA038. The following applies: FADDI-PA038. The procedure, abridged: as §1
For assay [13], the system named is Acinetobacter baumannii FADDI-AB030. The assay is described as follows: microbe, parasite or virus in culture. The following applies: FADDI-AB030. The essentials:
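Lipopeptide TFA salts tested against the multidrug-resistant clinical isolate by CLSI (M100-S24) broth microdilution in cation-adjusted Mueller-Hinton broth, with polymyxin B sulphate as control; MIC read.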

For the compound `CCC[C@H]1NC(=O)[C@H](CCN)NC(=O)[C@@H](NC(=O)[C@H](CN)NC(=O)[C@@H](NC(=O)[C@H](CCN)NC(=O)c2cc(Cl)ccn2)[C@@H](C)O)CCNC(=O)[C@H]([C@@H](C)O)NC(=O)[C@H](CCN)NC(=O)[C@H](CCN)NC(=O)[C@H](CC)NC1=O` [Compound 96] (X29-[Dab]T[Dap][Dab][Dab][dNva][Abu][Dab][Dab]T; lactam 4-C), the Minimum inhibitory concentration in assay [1] turned out to be 1 µg/mL (≈ 0.899 µM); in assay [2], 1 µg/mL (≈ 0.899 µM); in assay [3], 0.25 µg/mL (≈ 0.225 µM); in assay [4] it was 0.5 µg/mL (≈ 0.449 µM); in [5], 0.5 µg/mL (≈ 0.449 µM); in assay [6] it was 0.25 µg/mL (≈ 0.225 µM). The Minimum inhibitory concentration in assay [7] was 0.5 µg/mL (≈ 0.449 µM); in assay [8], 1 µg/mL (≈ 0.899 µM); in assay [9] it was 0.25 µg/mL (≈ 0.225 µM); in [10] it was 0.25 µg/mL (≈ 0.225 µM); in [11], 0.25 µg/mL (≈ 0.225 µM); in [12], 1 µg/mL (≈ 0.899 µM). In assay [13], the Minimum inhibitory concentration was 2 µg/mL (≈ 1.8 µM).
For `CC(C)C[C@H]1NC(=O)[C@H](CCN)NC(=O)[C@@H](NC(=O)[C@H](CN)NC(=O)[C@@H](NC(=O)[C@H](CCN)NC(=O)c2cc(Cl)ccn2)[C@@H](C)O)CCNC(=O)[C@H]([C@@H](C)O)NC(=O)[C@H](CCN)NC(=O)[C@H](CCN)NC(=O)[C@H](C)NC1=O` [Compound 97] (X29-[Dab]T[Dap][Dab][Dab][dL]A[Dab][Dab]T; lactam 4-C), the Minimum inhibitory concentration was 2 µg/mL (≈ 1.8 µM) in assay [1]; 2 µg/mL (≈ 1.8 µM) in [2]; less than 0.125 µg/mL in [3]; 0.25 µg/mL (≈ 0.225 µM) in assay [4]; 0.25 µg/mL (≈ 0.225 µM) in assay [5]; less than 0.125 µg/mL in [6]. Besides, the Minimum inhibitory concentration in assay [7] was found to be 0.5 µg/mL (≈ 0.449 µM); in assay [8], 0.25 µg/mL (≈ 0.225 µM); in assay [9] it was 0.25 µg/mL (≈ 0.225 µM); in assay [10], 0.25 µg/mL (≈ 0.225 µM); in [11], 0.25 µg/mL (≈ 0.225 µM); in [12], 2 µg/mL (≈ 1.8 µM). In assay [13], this compound displayed a Minimum inhibitory concentration of 2 µg/mL (≈ 1.8 µM).
On to `CC(C)C[C@H]1NC(=O)[C@H](CCN)NC(=O)[C@@H](NC(=O)[C@H](CN)NC(=O)[C@@H](NC(=O)[C@H](CCN)NC(=O)c2cc(Cl)ccn2)[C@@H](C)O)CCNC(=O)[C@H]([C@@H](C)O)NC(=O)[C@H](CCN)NC(=O)[C@H](CCN)NC(=O)[C@H]([C@@H](C)O)NC1=O` [Compound 98] (X29-[Dab]T[Dap][Dab][Dab][dL]T[Dab][Dab]T; lactam 4-C), for which the Minimum inhibitory concentration was 2 µg/mL (≈ 1.75 µM) in assay [1]; 2 µg/mL (≈ 1.75 µM) in [2]; less than 0.125 µg/mL in assay [3]; less than 0.125 µg/mL in assay [4]; 0.5 µg/mL (≈ 0.438 µM) in [5]; less than 0.125 µg/mL in assay [6]. The Minimum inhibitory concentration was found to be 0.25 µg/mL (≈ 0.219 µM) in assay [7]; 0.25 µg/mL (≈ 0.219 µM) in assay [8]; 0.25 µg/mL (≈ 0.219 µM) in assay [9]; 0.25 µg/mL (≈ 0.219 µM) in assay [10]; 0.25 µg/mL (≈ 0.219 µM) in assay [11]; 8 µg/mL (≈ 7 µM) in assay [12]. The compound also had a Minimum inhibitory concentration in assay [13] of 1 µg/mL (≈ 0.875 µM).
Turning to `CC(C)C[C@H]1NC(=O)[C@H](CCN)NC(=O)[C@@H](NC(=O)[C@H](CN)NC(=O)[C@@H](NC(=O)[C@H](CCN)NC(=O)c2sc(Br)cc2Br)[C@@H](C)O)CCNC(=O)[C@H]([C@@H](C)O)NC(=O)[C@H](CCN)NC(=O)[C@H](CCN)NC(=O)[C@H](C)NC1=O` [Compound 99] (X50-[Dab]T[Dap][Dab][Dab][dL]A[Dab][Dab]T; lactam 4-C), the Minimum inhibitory concentration is 1 µg/mL (≈ 0.806 µM) in [1]; 0.5 µg/mL (≈ 0.403 µM) in assay [2]; less than 0.125 µg/mL in assay [3]; 0.25 µg/mL (≈ 0.201 µM) in assay [4]; less than 0.125 µg/mL in [5]; less than 0.125 µg/mL in assay [6]. In addition, the Minimum inhibitory concentration in [7] is less than 0.125 µg/mL; in assay [8] it was 0.25 µg/mL (≈ 0.201 µM); in assay [9], 0.25 µg/mL (≈ 0.201 µM); in assay [10], 0.25 µg/mL (≈ 0.201 µM); in assay [11], 0.25 µg/mL (≈ 0.201 µM); in [12], 1 µg/mL (≈ 0.806 µM). The Minimum inhibitory concentration in assay [13] amounted to 0.5 µg/mL (≈ 0.403 µM).
For the compound `CC(C)C[C@H]1NC(=O)[C@H](CCN)NC(=O)[C@@H](NC(=O)[C@H](CN)NC(=O)[C@@H](NC(=O)[C@H](CCN)NC(=O)c2sc(Br)cc2Br)[C@@H](C)O)CCNC(=O)[C@H]([C@@H](C)O)NC(=O)[C@H](CCN)NC(=O)[C@H](CCN)NC(=O)[C@H]([C@@H](C)O)NC1=O` [Compound 100] (X50-[Dab]T[Dap][Dab][Dab][dL]T[Dab][Dab]T; lactam 4-C), the Minimum inhibitory concentration was 0.25 µg/mL (≈ 0.197 µM) in [1]; 0.5 µg/mL (≈ 0.393 µM) in [2]; less than 0.125 µg/mL in assay [3]; less than 0.125 µg/mL in assay [4]; less than 0.125 µg/mL in [5]; less than 0.125 µg/mL in [6]. Further, the Minimum inhibitory concentration in [7] was 0.25 µg/mL (≈ 0.197 µM); in assay [8] it was 0.5 µg/mL (≈ 0.393 µM); in [9] it was less than 0.125 µg/mL; in assay [10] it was less than 0.125 µg/mL; in assay [11], less than 0.125 µg/mL; in [12], 1 µg/mL (≈ 0.787 µM). Moreover, in assay [13], the Minimum inhibitory concentration came out at 0.5 µg/mL (≈ 0.393 µM).
In the case of `CC[C@@H]1NC(=O)[C@@H](CC(C)C)NC(=O)[C@H](CCN)NC(=O)[C@@H](NC(=O)[C@H](CN)NC(=O)[C@@H](NC(=O)[C@H](CCN)NC(=O)c2csc(Br)c2)[C@@H](C)O)CCNC(=O)[C@H]([C@@H](C)O)NC(=O)[C@H](CCN)NC(=O)[C@H](CCN)NC1=O` [Compound 101] (X70-[Dab]T[Dap][Dab][Dab][dL][Abu][Dab][Dab]T; lactam 4-C), the Minimum inhibitory concentration in [1] worked out at 0.5 µg/mL (≈ 0.425 µM); in assay [2] it was 0.5 µg/mL (≈ 0.425 µM); in [3], 0.5 µg/mL (≈ 0.425 µM); in assay [4], 0.5 µg/mL (≈ 0.425 µM); in assay [5] it was 0.5 µg/mL (≈ 0.425 µM); in [6], 1 µg/mL (≈ 0.85 µM). Also, the Minimum inhibitory concentration in [7] is 0.5 µg/mL (≈ 0.425 µM); in assay [8], 0.5 µg/mL (≈ 0.425 µM); in [9], 0.25 µg/mL (≈ 0.213 µM); in assay [10], 0.25 µg/mL (≈ 0.213 µM); in assay [11] it was 0.25 µg/mL (≈ 0.213 µM); in assay [12], 0.5 µg/mL (≈ 0.425 µM). This compound registered a Minimum inhibitory concentration in assay [13] of 0.5 µg/mL (≈ 0.425 µM).
As to `CC[C@@H]1NC(=O)[C@@H](CC(C)C)NC(=O)[C@H](CCN)NC(=O)[C@@H](NC(=O)[C@H](CN)NC(=O)[C@@H](NC(=O)[C@H](CCN)NC(=O)c2cc(Br)ccn2)[C@@H](C)O)CCNC(=O)[C@H]([C@@H](C)O)NC(=O)[C@H](CCN)NC(=O)[C@H](CCN)NC1=O` [Compound 102] (X65-[Dab]T[Dap][Dab][Dab][dL][Abu][Dab][Dab]T; lactam 4-C), the Minimum inhibitory concentration in [1] was 0.5 µg/mL (≈ 0.427 µM); in assay [2], 0.5 µg/mL (≈ 0.427 µM); in assay [3] it was less than 0.125 µg/mL; in [4], less than 0.125 µg/mL; in [5], less than 0.125 µg/mL; in [6] it was less than 0.125 µg/mL. The Minimum inhibitory concentration is 0.25 µg/mL (≈ 0.213 µM) in assay [7]; less than 0.125 µg/mL in assay [8]; 0.5 µg/mL (≈ 0.427 µM) in assay [9]; 0.5 µg/mL (≈ 0.427 µM) in [10]; 0.5 µg/mL (≈ 0.427 µM) in assay [11]; 1 µg/mL (≈ 0.854 µM) in [12]. This compound also yielded a Minimum inhibitory concentration in assay [13] of 0.25 µg/mL (≈ 0.213 µM).
